{"source": "paper PMC5464637", "about": "“Identification of key amino acid residues in the hTGR5–nomilin interaction and construction of its binding model” (PLoS ONE, 2017)", "key": {"hTGR5-WT": {"molecular_target": "T1, hTGR5-WT (Homo sapiens, UniProt Q8TDU6)", "T1 construct": "expressed in transfected cells; host or cells: HEK293", "T1 sequence (Q8TDU6 1-330)": "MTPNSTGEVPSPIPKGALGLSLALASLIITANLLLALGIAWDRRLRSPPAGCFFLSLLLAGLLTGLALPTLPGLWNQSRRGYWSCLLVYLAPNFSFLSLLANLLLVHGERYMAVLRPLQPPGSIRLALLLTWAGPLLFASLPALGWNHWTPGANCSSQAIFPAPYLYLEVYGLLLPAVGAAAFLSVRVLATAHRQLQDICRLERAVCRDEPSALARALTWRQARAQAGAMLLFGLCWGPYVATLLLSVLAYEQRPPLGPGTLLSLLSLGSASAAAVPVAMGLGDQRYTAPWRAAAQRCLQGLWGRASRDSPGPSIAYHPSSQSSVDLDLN", "experiment": "CRE-luciferase reporter assay in HEK293 cells transfected with hTGR5-WT", "type": "cell-based", "conditions": "for agonist activity (CRE-luciferase response): hTGR5-WT, 100 μM, 5 h, HEK293", "experimental": "(§1) HEK293 cells were plated in 12-well plates at a density of 1.0 × 10^5 cells/well. Twenty hours later, the cells were transfected with pCRE-Luc, p3×FLAG-CMV-TGR5, and pEF-β-galactosidase (100 ng/well each) using the calcium phosphate method. After 4 h of incubation, the medium was replaced with DMEM, which contained 10% dextran charcoal-stripped FBS. Twenty-four hours after transfection, the cells were treated with the previously mentioned compounds and control vehicle (DMSO). After 5 h, the cells were then incubated with lysis buffer (25 mM Tris-phosphate [pH 7.8], 2 mM dithiothreitol [DTT], 2 mM trans-1,2-Diaminocyclohexane-N,N,N, N′-tetraacetic acid [CDTA], 10% glycerol, and 1% Triton X-100) on ice, and the luciferase and β-galactosidase activity were measured. The luciferase activity values were divided by those of β-galactosidase to obtain normalized luciferase values."}, "mTGR5-WT": {"molecular_target": "T2, mTGR5-WT (Mus musculus, UniProt Q80SS6)", "T2 construct": "expressed in transfected cells; host or cells: HEK293", "T2 sequence (Q80SS6 1-329)": "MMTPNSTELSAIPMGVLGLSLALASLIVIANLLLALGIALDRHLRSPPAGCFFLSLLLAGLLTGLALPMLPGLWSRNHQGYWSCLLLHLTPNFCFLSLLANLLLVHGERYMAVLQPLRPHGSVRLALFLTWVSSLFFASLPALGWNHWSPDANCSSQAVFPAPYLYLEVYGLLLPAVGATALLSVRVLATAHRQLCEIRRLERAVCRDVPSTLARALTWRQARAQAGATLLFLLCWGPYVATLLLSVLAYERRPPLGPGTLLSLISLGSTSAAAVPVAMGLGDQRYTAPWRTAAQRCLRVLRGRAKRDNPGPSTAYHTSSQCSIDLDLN", "experiment": "CRE-luciferase reporter assay in HEK293 cells transfected with mTGR5-WT", "type": "cell-based", "conditions": "for agonist activity (CRE-luciferase response): 100 μM, 5 h, HEK293; for EC50: CRE-luciferase dose-response, HEK293, n = 3", "experimental": "as §1"}, "hTGR5-Q77A/R80A/Y89A": {"system": "hTGR5-Q77A/R80A/Y89A", "conditions": "100 μM, 5 h, HEK293", "experimental": "as §1\n(PDF) Click here for additional data file."}, "mTGR5-R76Q/Q79R/H88Y": {"molecular_target": "T3, mTGR5-R76Q/Q79R/H88Y (Mus musculus, UniProt Q80SS6, H88Y/Q79R/R76Q)", "T3 sequence (Q80SS6 1-329 R76Q/Q79R/H88Y)": "T2 sequence (Q80SS6 1-329) with R76Q, Q79R, H88Y", "experiment": "CRE-luciferase reporter assay in HEK293 cells transfected with mouse-to-human triple mutant TGR5", "conditions": "for agonist activity (CRE-luciferase response): mTGR5-R76Q/Q79R/H88Y, HEK293"}, "hTGR5-Q77R/R80Q/Y89H": {"molecular_target": "T4, hTGR5-Q77R/R80Q/Y89H (Homo sapiens, UniProt Q8TDU6, Q77R/R80Q/Y89H)", "T4 sequence (Q8TDU6 1-330 Q77R/R80Q/Y89H)": "T1 sequence (Q8TDU6 1-330) with Q77R, R80Q, Y89H", "experiment": "CRE-luciferase reporter assay in HEK293 cells transfected with human-to-mouse triple mutant TGR5", "conditions": "for EC50: CRE-luciferase dose-response, HEK293, n = 3; for agonist activity (CRE-luciferase response): HEK293"}}, "note": "Numbering of substitutions follows the chain as printed.", "data": [{"molecule": "CC1(C)O[C@H]2CC(=O)OC[C@]23[C@H]2CC[C@@]4(C)[C@H](c5ccoc5)OC(=O)[C@H]5O[C@]54[C@]2(C)C(=O)C[C@@H]13", "note": "[limonin]", "values": [{"measurement": "agonist activity (CRE-luciferase response)", "setting": "hTGR5-WT", "value": "very weak hTGR5 agonist activity"}]}, {"molecule": "CC(=O)O[C@H]1CC(=O)OC(C)(C)[C@@H]2CC(=O)[C@]3(C)[C@H](CC[C@@]4(C)[C@H](c5ccoc5)OC(=O)[C@H]5O[C@]543)[C@@]12C", "note": "[nomilin]", "values": [{"measurement": "EC50", "setting": "hTGR5-WT", "value": 23.6, "unit": "µM"}, {"measurement": "agonist activity (CRE-luciferase response)", "setting": "mTGR5-WT", "value": "considerably weaker agonist activity for mTGR5 than it does for hTGR5"}, {"measurement": "EC50", "setting": "mTGR5-WT", "value": "undetectable"}, {"measurement": "agonist activity (CRE-luciferase response)", "setting": "hTGR5-Q77A/R80A/Y89A", "value": "very weak nomilin response relative to WT-hTGR5"}, {"measurement": "EC50", "setting": "mTGR5-R76Q/Q79R/H88Y", "value": 46.2, "unit": "µM"}, {"measurement": "agonist activity (CRE-luciferase response)", "setting": "mTGR5-R76Q/Q79R/H88Y", "value": "strong nomilin response equal to that of hTGR5-WT"}, {"measurement": "EC50", "setting": "hTGR5-Q77R/R80Q/Y89H", "value": "undetectable"}, {"measurement": "agonist activity (CRE-luciferase response)", "setting": "hTGR5-Q77R/R80Q/Y89H", "value": "very weak nomilin response identical to that of mTGR5"}]}, {"molecule": "CC1(C)OC(=O)C=C[C@]2(C)[C@H]3CC[C@@]4(C)[C@H](c5ccoc5)OC(=O)[C@H]5O[C@]54[C@]3(C)C(=O)C[C@@H]12", "note": "[obacunone]", "values": [{"measurement": "EC50", "setting": "hTGR5-WT", "value": 147, "unit": "µM"}, {"measurement": "agonist activity (CRE-luciferase response)", "setting": "hTGR5-WT", "value": "stronger agonist activity for hTGR5 than it does for mTGR5"}, {"measurement": "agonist activity (CRE-luciferase response)", "setting": "mTGR5-WT", "value": "very weak obacunone response"}, {"measurement": "EC50", "setting": "mTGR5-WT", "value": "undetectable"}, {"measurement": "EC50", "setting": "mTGR5-R76Q/Q79R/H88Y", "value": 165, "unit": "µM"}, {"measurement": "agonist activity (CRE-luciferase response)", "setting": "mTGR5-R76Q/Q79R/H88Y", "value": "equally intense obacunone responses"}, {"measurement": "EC50", "setting": "hTGR5-Q77R/R80Q/Y89H", "value": "undetectable"}, {"measurement": "agonist activity (CRE-luciferase response)", "setting": "hTGR5-Q77R/R80Q/Y89H", "value": "very weak obacunone response"}]}]}
